These results are taken from patent US11390602B2, “N-alkyl-N-cyanoalkylbenzamide compound and use thereof” (JIANGSU FLAG CHEMICAL INDUSTRY CO., LTD., priority 2017, dated 2022).

Like-named read-outs stand apart in the source and are kept apart here.

In this test the test system is Plutella xylostella. Kind of test: Insecticidal effect on Plutella xylostella (leaf disc immersion). In kind it is in vivo. The conditions noted are these: foliar, 72 h, read-out: insecticidal activity on Plutella xylostella (mortality %). The method, then: The test reagents were all dissolved in a mixed solvent of acetone:N′N′-dimethylcarboxamide (1:1) to give a 1000 mg/L solution. 1% Tween-80 was added as an emulsifier to each solution. These solutions were then diluted with 1% Tween-20 solution in water to give desired concentrations of test solutions. An aqueous solution containing 1% Tween-20 was used as a control.
Third instar larvae of Plutella xylostella were used. Cabbages were washed, air dried, punched into leaf discs, immersed in reagent solutions for 10 sec, taken out, naturally dried and then placed in a Petri dish. 10 third-instar larvae of Plutella xylostella were inoculated to each Petri dish, and three replicates were set. The number of deaths in 3 days was investigated, and the mortality was calculated.

Setting [1] is: concentration 0.05 ppm, third instar larvae, 3 days.
Where [2] appears, read: concentration 0.5 ppm, third instar larvae, 3 days.

`CN(C(=O)c1cc(Cl)cc(Cl)c1NC(=O)c1cc(Br)nn1-c1ncccc1Cl)C(C)(C)C#N` [Compound 1.15, N-(6-N-((2-cyanopropan-2-yl)-N-methylcarbamoyl)-2,4-dichlorophenyl)-1-(3-chloropyridin-2-yl)-3-bromo-1H-pyrazol-5-carboxamide]: the mortality at 0.01 ppm worked out at 66.7%, the mortality at 0.05 ppm was 86.7% and the mortality at 0.5 ppm is 100%.

`Cc1cc(Cl)cc(C(=O)NC(C)(C)C#N)c1NC(=O)c1cc(Br)nn1-c1ncccc1Cl` [KC1]: the mortality at 0.05 ppm under setting [1] turned out to be 45.7%. Also, the mortality at 0.5 ppm under setting [2] came to 71.9%.

Take `CC(C)(C#N)NC(=O)c1cc(Cl)cc(Cl)c1NC(=O)c1cc(Br)nn1-c1ncccc1Cl` [KC2]: for the setting “concentration 0.01 ppm, third instar larvae, 3 days”, the mortality at 0.01 ppm is 28.1%. Further, the mortality at 0.05 ppm under setting [1] came out at 51.4%. The mortality at 0.5 ppm under setting [2] was found to be 88.2%.

By mortality is commonly meant the share of the test organisms that died.
